Data as given in patent EP4129319A1, “PORE-FORMING ANTIMICROBIAL PEPTIDES” (priority 2021, dated 2023).
Read-outs that look alike come from different tables or passages of the source. Ends that are not written are not given here.

Key:
Calcein leakage assay = type: biochemical; conditions: for Extent of leakage (in percentage) at increasing peptide-to-lipid ratio (mol/mol) 1:100 / Extent of leakage (in percentage) at increasing peptide-to-lipid ratio (mol/mol) 1:10 / Extent of leakage (in percentage) at increasing peptide-to-lipid ratio (mol/mol) 1:20 / Extent of leakage (in percentage) at increasing peptide-to-lipid ratio (mol/mol) 1:50: calcein leakage, POPC:POPG (1:1 mol/mol) LUVs; for Extent of leakage (in percentage) at increasing peptide-to-lipid ratio (mol/mol) 1:100: peptide-to-lipid ratio 1:100 (mol/mol); for Extent of leakage (in percentage) at increasing peptide-to-lipid ratio (mol/mol) 1:10: peptide-to-lipid ratio 1:10 (mol/mol); for Extent of leakage (in percentage) at increasing peptide-to-lipid ratio (mol/mol) 1:20: peptide-to-lipid ratio 1:20 (mol/mol); for Extent of leakage (in percentage) at increasing peptide-to-lipid ratio (mol/mol) 1:50: peptide-to-lipid ratio 1:50 (mol/mol)
Procedure: (§1) Chemicals. […] (Prague, Czech Republic), and Caslo ApS (Kongens Lyngby, Denmark). […] The bacterial stock was stored at -80°C.
Calcein leakage assay. Pore-forming activity of the peptides was tested by their ability to leak the self-quenching fluorescent dye calcein entrapped within POPC:POPG (1:1 mol/mol) large unilamellar vesicles (LUVs). After mixing DiD to the lipid mixture (in the ratio 1:500 mol/mol), a thin lipid film was created by evaporating of the chloroform, traces of which were removed by desiccating overnight. The lipid film was then dissolved in calcein buffer, followed by vigorous vortexing. The lipid suspension was subsequently subjected to 10 freeze-thaw cycles. To obtain uniform LUVs, the sample was passed 50 times back and forth through an extruder stacked with 100 nm pore size polycarbonate membrane filter. Afterwards, the untrapped calcein was removed on a HiTrap Desalting Column (with Sephadex G-25 Superfine resin) by washing with PBS buffer. The concentration of the lipid suspension was then adjusted to 0.02 mM. The concentration of the peptide solution was 0.1 mM. The inventors monitored the peptide-induced release of calcein from LUVs by the increase in fluorescence intensity after adding increasing amounts of peptides to the LUVs under constant stirring at 25 °C. The investigated range of peptide/lipid molecular ratio was from 1:100 to 1:10. The excitation and emission wavelengths were set to 495 nm and 520 nm, respectively. Maximum fluorescence intensity was obtained by disrupting all the vesicles in the end by adding 10% Triton X-100. Experiments were performed in triplicates with independently prepared lipid vesicles.

[1] = system: Gram-negative Escherichia coli TOP10 strain; type: cell-based; conditions: for Antibacterial activity (MIC in µM) E. coli TOP10: broth microdilution assay; for MIC against E. coli: 24 h at 37 °C, dilution series 50 to 0.1 µM
Procedure: as §1
(§2) Broth microdilution assay. Antimicrobial activity of the peptides was investigated against Gram-negative Escherichia coli TOP10 strain and Gram-positive Staphylococcus carnosus CCM 4838T using broth microdilution assay, based on which the inventors determined the bacterial minimum inhibition concentration (MIC). After cross streaking with bacteria, the petri dishes (with MHA) were incubated for 24 h at 37 °C. Overnight grown cultures were then sub-cultured for 4-6 h at 37 °C in test tubes containing MHB. The sub-cultured solutions were subsequently diluted to a standard concentration of 10^6 colony forming units (CFU) per mL. Cell counts were determined by measuring the optical density at 600 nm. In a flat-bottomed 96 well plate, the inventors prepared a dilution series for the peptides and for the reference antibiotic ampicillin from 50 to 0.1 µM concentration, which was then inoculated with bacteria and incubated for 24 h at 37 °C. Growth control wells were free from peptides or ampicillin to show the viability of the bacteria, and sterility control wells were free from bacterial inoculation to verify the sterility of the medium. The bacterial growth was visually evaluated based on the turbidity. MIC was determined as the lowest concentrated well where no visible bacterial growth was observed. To test the bacteriostatic or bacteriocidal activity of the peptides, 50 µl solution from the highest concentrated well (i.e., 50 µM) was transferred to a test tube containing 4 mL sterile MHB and incubated for 24 h at 37 °C under constant stirring. Streaking of the same solution was done on MHA containing petri dishes and incubated for 24 h at 37 °C to confirm the morphology of the colonies grown. Experiments were performed in triplicates.

[2] = system: Gram-positive Staphylococcus carnosus CCM 4838T; type: cell-based; conditions: for Antibacterial activity (MIC in µM) S. carnosus: CCM 4838
Procedure: as §1, §2

[3] = system: human red blood cells (HRBCs); type: cell-based
Procedure: as §1
Hemolysis assay. Hemolytic toxicity of the peptides was evaluated from their ability to lyse the fresh human red blood cells (HRBCs) collected from the University Hospital (Brno, Czech Republic). To obtain the erythrocyte pellets, the blood samples were centrifuged twice at 700×g and subsequently, once at 1000×g, each for 8 min. at 4 °C, which was followed by thorough washing with PBS. Resuspension of the pellets was done in PBS to obtain 0.5% (vol/vol) RBC suspension. In a well plate with 96 V-shaped bottom wells, the peptides were added in a dilution series from 0.1 to 50 µM concentration. Subsequently, HRBC suspension was added in each well. Negative control wells contained only PBS and HRBC suspension without any peptide (i.e., 0% lysis), and positive control wells included 5 µM melittin in the HRBC suspension. After incubation for 1 h at 37 °C, the well plates were centrifuged at 1000×g for 10 min. at 4 °C. Subsequently, the supernatant was collected in a flat-bottomed well plate and the optical density of the released hemoglobin was measured for each well at 415 nm wavelength. The calculated absorbances from the wells were then normalized against the averaged absorbances of the positive and the negative control wells. EC50 value was calculated from the normalized absorbances indicating 50% hemolysis of HRBCs. Experiments were performed in triplicates with three independent blood samples.

[4] = hemolysis assay, HRBCs, read-out: Toxicity (EC50 in µM) HRBCs

Substance	Extent of leakage (in percentage) at increasing peptide-to-lipid ratio (mol/mol) 1:100 (Calcein leakage assay)	Antibacterial activity (MIC in µM) S. carnosus [2] [µM]	Extent of leakage (in percentage) at increasing peptide-to-lipid ratio (mol/mol) 1:10 (Calcein leakage assay)	Extent of leakage (in percentage) at increasing peptide-to-lipid ratio (mol/mol) 1:20 (Calcein leakage assay)	Extent of leakage (in percentage) at increasing peptide-to-lipid ratio (mol/mol) 1:50 (Calcein leakage assay)	Antibacterial activity (MIC in µM) E. coli TOP10 [1] [µM]	other results
H-HHHHLKKILKKLFQFINQLDNQLQDIHHHH-OH [KDFA2i+2-Hter]	102.5 ± 1.2 percentage	> 50					extent of calcein leakage at peptide-to-lipid (P:L) ratio 1:100 (Calcein leakage assay; POPC:POPG (1:1) LUVs): 100%; antimicrobial activity against E. coli (in words) [1]: did not show antibacterial activity; antimicrobial activity against S. carnosus (in words) [2]: did not show antibacterial activity
H-KKKKVKKILKKLIQLIDQLDKDLQDIKKKK-NH2 [KD16+9-NH2]	58.8 ± 4.8 percentage		99.1 ± 2.5 percentage	93.1 ± 0.7 percentage	83.0 ± 1.5 percentage		calcein / vesicle leakage, pore-forming ability (in words) (Calcein leakage assay; POPC:POPG (1:1) LUVs): resulted in vesicle leakage; EC50 [3]: > 50 µM
KKKKKLKKILKKLFQFINQLDNQLQDIKKKKK [KDFA2i+12]		0.4				0.4	EC50 [3, 4]: > 50 µM
KKKKLDDILDDLFQFIKQLKNKLQKIKKKK-NH2 [DKFC16+9-NH2]	50.1 ± 4.1 percentage	1.6		103.3 ± 0.9 percentage	89.5 ± 3.3 percentage	> 50	calcein / vesicle leakage, pore-forming ability (in words) (Calcein leakage assay; POPC:POPG (1:1) LUVs): resulted in vesicle leakage; antimicrobial activity against E. coli (in words) [1]: did not show activity against E. coli; antimicrobial activity against S. carnosus (in words) [2]: found active against S. carnosus; EC50 [3]: > 50 µM
KKKKLKKILKKLFQFINQLDNQLQDFKQNK [KDFA2i+8(I26F)]		0.8				0.4	EC50 [3, 4]: > 50 µM
KKKKLKKILKKLFQFINQLDNQLQDIKQNK [KDFA2i+8]		0.4				0.2	EC50 [3, 4]: > 50 µM
KKKKLKKILKKLFQFINQLENQLQEIKQNK-NH2 [KEFA2i+9-NH2]		0.8				0.8	EC50 [3, 4]: > 50 µM
KKKKLKKILKKLWQWINQLDNQLQDIKQNK-NH2 [KDWA2i+9-NH2]		0.8				0.4	EC50 [3, 4]: > 50 µM
NQKKLKKILNQLFQFINQLDNQLQDIKKQN [KDFA2]	82.8 ± 1.5 percentage				100.2 ± 0.2 percentage	50	MIC against E. coli [1]: 50 µM; EC50 [3]: > 50 µM
NQKKLRRILRRLFQFIDQLDNDLQDIKKQN [RDFC16Kter]	64.5 ± 6.1 percentage			102.2 ± 0.5 percentage	85.3 ± 4.3 percentage	50	MIC against E. coli [1]: 50 µM; EC50 [3]: > 50 µM
NQRRLQNILRRLFQFIDQLINDLQNIRRQN [RDFA5]	Aggregated peptides and no leakage		Aggregated peptides and no leakage	Aggregated peptides and no leakage	Aggregated peptides and no leakage		
NQRRLQNILRRLFQFINQLIDDLQNIRRQN [RDFA7]	Aggregated peptides and no leakage		Aggregated peptides and no leakage	Aggregated peptides and no leakage	Aggregated peptides and no leakage		
NQRRLRRILNQLFQFINQLDNQLQDIRQNR [RDFA2i]	Aggregated peptides and no leakage		Aggregated peptides and no leakage	Aggregated peptides and no leakage	Aggregated peptides and no leakage		
NQRRLRRILNQLFQFINQLDNQLQDIRRQN [RDFA2]	80.2 ± 8.2 percentage			102.9 ± 0.9 percentage	97.4 ± 4.5 percentage	> 50	EC50 [3]: > 50 µM
NQRRLRRILNQLWQWINQLDNQLQDIRRQN [RDWA2]	Aggregated peptides and no leakage		Aggregated peptides and no leakage	Aggregated peptides and no leakage	Aggregated peptides and no leakage		
NQRRLRRILRRLFQFIDQLDNDLQDIRRQN [RDFC16]	Aggregated peptides and no leakage		Aggregated peptides and no leakage	Aggregated peptides and no leakage	Aggregated peptides and no leakage		
NQRRLRRILRRLFQFINQLIDDLDDIRRQN [RDFC21]	Aggregated peptides and no leakage		Aggregated peptides and no leakage	Aggregated peptides and no leakage	Aggregated peptides and no leakage		
NQRRLRRILRRLWQWINQLIDDLDDIRRQN [RDWC21]	Aggregated peptides and no leakage		Aggregated peptides and no leakage	Aggregated peptides and no leakage	Aggregated peptides and no leakage		
